This passage reports IC50 results from BindingDB's records for doi:10.1016/j.bmc.2011.01.052 (Kinki University, 2011).

A short description of the assay: Inhibition of rat intestinal maltase.

In general, IC50 refers to the concentration that inhibits the measured activity by half. Low values mean higher potency, high ones lower potency. With `OC[C@@H]1[C@@H](O)[C@H](O)C[S@+]1C[C@@H](O)[C@H](O)[C@H](O)[C@@H](O)CO` [1,4-Dideoxy-1,4-{(R)-[(2S,3R,4R,5S)-2,3,4,5,6-pentahydroxyhexyl]episulfoniumylidene}-D-arabinitol chloride], the midpoint of inhibition, the IC50, lay at 1.3 µM.
To `OC[C@@H](O)C[S@@+]1C[C@@H](O)[C@H](O)[C@H]1CO` [1,4-dideoxy-1,4-{(R)-[(2S)-2,3-dihydro-xypropyl]episulfoniumylidene}-D-arabinitol Chloride] belongs 105 µM.
To `OC[C@@H](O)[C@@H](O)[C@H](O)[C@H](O)C[S@@+]1C[C@@H](O)[C@H](O)[C@H]1CO` [(1R,2R,3S,4S)-3,4-dihydroxy-2-(hydroxymethyl)-1-((2S,3S,4R,5R)-2,3,4,5,6-pentahydroxyhexyl)tetrahydro-1H-thiophenium chloride] belongs 4.3 µM; to `OC[C@@H]1[C@@H](O)[C@H](O)C[S@+]1C[C@@H](O)[C@@H](O)[C@H](O)[C@@H](O)CO` [(1R,2R,3S,4S)-3,4-dihydroxy-2-(hydroxymethyl)-1-((2S,3S,4R,5S)-2,3,4,5,6-pentahydroxyhexyl)tetrahydro-1H-thiophenium chloride], 5.1 µM; to `OC[C@@H]1[C@@H](O)[C@H](O)C[S@+]1C[C@@H](O)[C@@H](O)[C@H](O)[C@H](O)[C@@H](O)CO` [(2R,3S,4S)-1-[(2S,3S,4R,5R,6S)-2,3,4,5,6,7-hexahydroxyheptyl]-3,4-dihydroxy-2-(hydroxymethyl)tetrahydrothiophenium (non-preferred name)], 4.8 µM.
Turning to `OC[C@H](O)C[S@@+]1C[C@@H](O)[C@H](O)[C@H]1CO` [Neosalaprinol], the IC50 was greater than 384 µM.
`O=S(=O)([O-])O[C@@H]([C@H](O)[C@@H](O)CO)[C@H](O)C[S@@+]1C[C@@H](O)[C@H](O)[C@H]1CO` [ponkoranol] returned a half-maximal inhibitory concentration (IC50) of 3.2 µM.
